Measured values from patent US20160311812A1, “ADENOSINE A1 AGONISTS AS MEDICAMENTS FOR KIDNEY DISORDERS” (BAYER PHARMA AKTIENGESELLSCHAFT, priority 2013, published 2016).

How the values were obtained:
[1] = tested on: 5/6 nephrectomy rat model; assay: Functional and structural renal dysfunction in 5/6 nephrectomized rats; type: in vivo; settings: 4 weeks; for End organ injury marker concentration in the urine: hFABP / End organ injury marker concentration in the urine: hFABP per creatinine: ELISA; for Kidney injury marker-1 [gene expression] / Lipocalin-2 [gene expression] / Osteopontin [gene expression]: renal cortex
Source text: (§1) B-3. Effects of Partial A1 Agonists on Renal and Cardiac Function in 5/6 Nephrectomized Rats (Example 1 for Chronic Kidney Disorder)
(§2) 5/6 nephrectomy in the rat, in which one kidney and the renal cortex of the second kidney are surgically removed (=5/6 of functional kidney tissue) is an established animal model for interstitial renal fibrosis and chronic renal insufficiency [C. Fleck et al., “Suitability of 5/6 nephrectomy (5/6NX) for the induction of interstitial renal fibrosis in rats Influence of sex, strain, and surgical procedure”, Exp. Tox. Pathology 2006, 57, 195-205]. The model is characterized by progressive proteinuria, disturbed tubular electrolyte transport, a reduced glomerular filtration rate, an increase in urinary output, interstitial fibrosis with reactively occurring lymphocyte infiltrates, glomerulosclerosis and tubular atrophy. The level of proteinuria is a specific index of the renal function prognosis: the higher the proteinuria, the greater is the functional and structural kidney injury and therefore progression of chronic to terminal renal insufficiency (uraemia). During monitoring of therapy, e.g. with the ACE inhibitor enalapril, the course of proteinuria provides information on the functional and structural response to the therapy and thus on the renal function prognosis. As a result of the renal insufficiency and accumulation of umemic toxins, in the animals there is secondary development of a umemic cardiomyopathy, depending on the severity associated with hypertension, increased heart rate, reduced parasympathetic tone, myocardial, left-ventricular hypertrophy and fibrosis, diastolic dysfunction and an increased prevalence of arrhythmias [Svilerova et al. 2010 Physiol Res 59: S81-S88).
(§3) Procedure: male Wistar:WU rats (210-250 g) from Charles River had the left kidney and the renal cortex of the right kidney removed (=SNX) in one session; sham-operated rats served as control group (=SOP). The following groups, each with 12 rats per group, were investigated:
(§4) Group 2 SNX+placebo (60 g glycerol+100 g water+969 g PEG-400)
(§5) Group 3 SNX+10 mg/kg body weight/day enalapril (reference therapy, in the drinking water)
(§6) Group 4 SNX+0.1 mg/kg body weight/day partial A1 agonist EXAMPLE 1, p.o. in placebo
(§7) Group 5 SNX+1.0 mg/kg body weight/day partial A1 agonist EXAMPLE 1, p.o. in placebo
(§8) Group 6 SNX+0.3 mg/kg body weight/day partial A1 agonist EXAMPLE 4, p.o. in placebo
(§9) Group 7 SNX+3.0 mg/kg body weight/day partial A1 agonist EXAMPLE 4, p.o. in placebo
(§10) Three weeks after 5/6 nephrectomy, the rats developed manifest proteinuria, from this time point the rats were treated for a further four weeks corresponding to the groups stated above. At the end of the protocol, the following samples were obtained/measurements were carried out: eight-hour urine collection with determination of the concentration of hFABP in the urine by ELISA (Rat/Mouse h-FABP ELISA, Hycultbiotech), as marker for end organ damage, invasive measurement of the isoprenaline-induced increase (cumulatively 12.5 ng-250 ng/kg isoprenaline, i.v.) in systolic and diastolic left ventricular function, and TaqMan analyses of renal injury markers in the renal cortex.

[2] = tested on: 5/6 nephrectomy rat model; assay: Left-ventricular diastolic dysfunction under isoprenaline infusion in 5/6 nephrectomized rats; type: in vivo; settings: 4 weeks
Source text: as §1, §2, §3, §4, §5, §6, §7, §8, §9, §10

[3] = tested on: unilaterally nephrectomized SHR; assay: Functional and structural renal dysfunction in unilaterally nephrectomized spontaneously hypertensive rats; type: in vivo, rat; settings: Group 4: SNX + 1.0 mg/kg body weight/day p.o., 4 weeks
Source text: (§11) B-4. Effects of Partial A1 Agonists on Renal and Cardiac Function in Unilaterally Nephrectomized and Spontaneously Hypertensive Rats (Example 2 for Chronic Kidney Disorders)
(§12) Unilaterally nephrectomized, spontaneously hypertensive rats (SHR) are an established animal model for investigating the development and progression of hypertensive damage of the glomeruli in the remaining kidney [H. Kinuno et al., “Effects of uninephrectomy on renal structural properties in spontaneously hypertensive rats”, Clin and Exp Pharmacol and Physiol 2005, 32, 173-178]. […] Furthermore, renal excretion of substances usually eliminated in the urine, such as creatinine and urea, is reduced and the electrolyte metabolism is disturbed, the latter being associated with volume retention.
(§13) Procedure: male SHR rats (180-220 g) from Taconic had the left kidney removed in one session (=UNX). Normotensive Wistar Kyoto rats (WKY) from Taconic served as control. The following groups, each with 12 rats per group, were investigated:
(§14) Group 2 UNX+placebo (60 g glycerol+100 g water+969 g PEG-400)
(§15) Group 3 UNX+10 mg/kg body weight/day enalapril (reference therapy, in the drinking water)
(§16) Group 4 SNX+1.0 mg/kg body weight/day partial A1 EXAMPLE 1, p.o. in placebo
(§17) Group 5 SNX+3.0 mg/kg body weight/day partial A1 EXAMPLE 4, p.o. in placebo
(§18) Three weeks after unilateral nephrectomy, the SHRs developed manifest hypertensive damage of the glomeruli in the remaining kidney, from this time point on the rats were treated for a further four weeks corresponding to the groups given above. At the end of the protocol, the following samples were obtained/measurements were carried out: eight-hour urine collection, invasive measurement of systolic and diastolic left ventricular function, and TaqMan analyses of renal injury markers in the renal cortex.

[4] = tested on: unilaterally nephrectomized SHR; assay: Functional and structural myocardial dysfunction in unilaterally nephrectomized spontaneously hypertensive rats; type: in vivo, rat; settings: Group 4: SNX + 1.0 mg/kg body weight/day p.o., 4 weeks
Source text: as §11, §12, §13, §14, §15, §16, §17, §18

[5] = Group 4: SNX + 0.1 mg/kg body weight/day p.o.
[6] = Group 5: SNX + 1.0 mg/kg body weight/day p.o.

N#Cc1c(N)nc(SCc2csc(-c3ccc(Cl)cc3)n2)c(C#N)c1-c1ccc(OCCO)cc1 [EXAMPLE 1, 2-Amino-6-({[2-(4-chlorophenyl)-1,3-thiazol-4-yl]methyl}sulphanyl)-4-[4-(2-hydroxyethoxy)phenyl]pyridine-3,5-dicarbonitrile]
P-creatinine [1, 5]: 66 ± 1 µmol/L
P-urea [1, 5]: 11 ± 0.5 mmol/L
U-creatinine [1, 5]: 2.4 ± 0.3 μmol/ml urine/kg BW/h
U-protein [1, 5]: 1.07 ± 0.28 μmol/ml urine/kg BW/h
U-sodium [1, 5]: 18 ± 3 μmol/ml urine/kg BW/h
U-urea [1, 5]: 260 ± 31 μmol/ml urine/kg BW/h
Urine volume [1, 5]: 2.2 ± 0.1 ml/kg BW/h
End organ injury marker concentration in the urine: hFABP [1, 5]: 1088 ± 159 pg hFABP/ml urine/h
End organ injury marker concentration in the urine: hFABP per creatinine [1, 5]: 194 ± 36 pg hFABP/μmol creatinine
Kidney injury marker-1 [gene expression] [1, 5]: 60 ± 17 rel. expression
Lipocalin-2 [gene expression] [1, 5]: 307 ± 51 rel. expression
Osteopontin [gene expression] [1, 5]: 6008 ± 1209 rel. expression
P-creatinine [1, 6]: 63 ± 1 µmol/L
P-urea [1, 6]: 11 ± 0.3 mmol/L
U-creatinine [1, 6]: 2.3 ± 0.3 μmol/ml urine/kg BW/h
U-protein [1, 6]: 0.75 ± 0.14 μmol/ml urine/kg BW/h
U-sodium [1, 6]: 31 ± 3 μmol/ml urine/kg BW/h
U-urea [1, 6]: 264 ± 35 μmol/ml urine/kg BW/h
Urine volume [1, 6]: 2.0 ± 0.2 ml/kg BW/h
End organ injury marker concentration in the urine: hFABP [1, 6]: 1136 ± 229 pg hFABP/ml urine/h
End organ injury marker concentration in the urine: hFABP per creatinine [1, 6]: 175 ± 39 pg hFABP/μmol creatinine
Kidney injury marker-1 [gene expression] [1, 6]: 62 ± 13 rel. expression
Lipocalin-2 [gene expression] [1, 6]: 313 ± 65 rel. expression
Osteopontin [gene expression] [1, 6]: 5476 ± 1131 rel. expression
left-ventricular pressure decrease as a function of time ([2]; isoprenaline 0 ng/kg body weight, Group 4: SNX + 0.1 mg/kg body weight/day p.o.): 6769 ± 206 mmHg/s
left-ventricular pressure decrease as a function of time ([2]; isoprenaline 0 ng/kg body weight, Group 5: SNX + 1.0 mg/kg body weight/day p.o.): 6516 ± 334 mmHg/s
left-ventricular pressure decrease as a function of time ([2]; isoprenaline 12.5 ng/kg body weight, Group 4: SNX + 0.1 mg/kg body weight/day p.o.): 7990 ± 208 mmHg/s
left-ventricular pressure decrease as a function of time ([2]; isoprenaline 12.5 ng/kg body weight, Group 5: SNX + 1.0 mg/kg body weight/day p.o.): 7126 ± 283 mmHg/s
left-ventricular pressure decrease as a function of time ([2]; isoprenaline 25 ng/kg body weight, Group 4: SNX + 0.1 mg/kg body weight/day p.o.): 8283 ± 222 mmHg/s
left-ventricular pressure decrease as a function of time ([2]; isoprenaline 25 ng/kg body weight, Group 5: SNX + 1.0 mg/kg body weight/day p.o.): 7309 ± 285 mmHg/s
left-ventricular pressure decrease as a function of time ([2]; isoprenaline 50 ng/kg body weight, Group 4: SNX + 0.1 mg/kg body weight/day p.o.): 8913 ± 282 mmHg/s
left-ventricular pressure decrease as a function of time ([2]; isoprenaline 50 ng/kg body weight, Group 5: SNX + 1.0 mg/kg body weight/day p.o.): 7990 ± 213 mmHg/s
left-ventricular pressure decrease as a function of time ([2]; isoprenaline 100 ng/kg body weight, Group 4: SNX + 0.1 mg/kg body weight/day p.o.): 9701 ± 300 mmHg/s
left-ventricular pressure decrease as a function of time ([2]; isoprenaline 100 ng/kg body weight, Group 5: SNX + 1.0 mg/kg body weight/day p.o.): 8722 ± 183 mmHg/s
left-ventricular pressure decrease as a function of time ([2]; isoprenaline 250 ng/kg body weight, Group 4: SNX + 0.1 mg/kg body weight/day p.o.): 9721 ± 307 mmHg/s
left-ventricular pressure decrease as a function of time ([2]; isoprenaline 250 ng/kg body weight, Group 5: SNX + 1.0 mg/kg body weight/day p.o.): 9028 ± 226 mmHg/s
P-creatinine [3]: 62 ± 1.1 mmol/L
P-urea [3]: 9.3 ± 0.4 mmol/L
U-creatinine [3]: 2.1 ± 0.4 μmol/ml urine/kg BW/h
U-protein [3]: 0.53 ± 0.10 μmol/ml urine/kg BW/h
U-sodium [3]: 37 ± 9 μmol/ml urine/kg BW/h
U-urea [3]: 186 ± 31 μmol/ml urine/kg BW/h
Urine volume [3]: 2.1 ± 0.2 ml/kg BW/h
CYR61 [gene expression] ([3]; renal cortex): 395 ± 47 rel. expression
Lipocalin-2 [gene expression] ([3]; renal cortex): 160 ± 24 rel. expression
Diastolic blood pressure [4]: 112 ± 6 mmHg
Heart rate [4]: 295 ± 11 beats/min
Left ventricular hypertrophy (LVS/RV ratio, mg/mg) [4]: 4.3 ± 0.2 mg/mg
Left-ventricular end-diastolic pressure [4]: 8.5 ± 1.3 mmHg
Left-ventricular pressure [4]: 169 ± 8 mmHg
Pressure decrease over time [4]: −10181 ± 523 mmHg/s
Pressure increase over time [4]: 7943 ± 512 mmHg/s
Systolic blood pressure [4]: 171 ± 8 mmHg
